Reference: paper PMC7821381, “Multi-Targeted Anticancer Activity of Imidazolate Phosphane Gold(I) Compounds by Inhibition of DHFR and TrxR in Breast Cancer Cells” (Frontiers in Chemistry, 2021)

Columns and labels:
[1] = molecular target: T1, Human apoTF (ATF) (Homo sapiens, UniProt P02787); assay: Transferrin (ATF) fluorescence quenching; assay type: binding; details: Stern-Volmer constant, Tris-HCl pH 7.4, 25°C
T1 construct: purchased Sigma Aldrich
Method: Human apoTF (ATF) was purchased from Sigma Aldrich and its concentration was determined by measuring the absorbance at 278 nm (ε = 92,300 M^−1 cm^−1). To evaluate if compounds 5 and 6 were able to bind to ATF in vitro, fluorescence spectra were recorded from 300 nm to 450 nm upon tryptophan excitation at 285 nm. Fluorimetric titrations were performed by titrating a 2 mL sample (prepared in 10 mM Tris-HCl buffer pH 7.4, 10 mM NaCl) containing human ATF (12.5 μM) with incremental additions of different aliquots of gold-complexes (5 mM in DMSO). Protein fluorescence intensity was recorded after each successive addition of complex solution and equilibration (5 min). The value of Stern Volmer constants of the different metal complexes to ATF were evaluated following Equation 3 and fluorescent values were corrected by Equation 2. All titrations were performed at room temperature (25°C) and averages between two trials are reported.

[2] = molecular target: T2, dihydrofolate reductase (DHFR) (Mus musculus, UniProt P00375); assay: DHFR specific enzymatic activity in lysates of treated A17 cells; assay type: cell-based, murine; details: 6 μM (maximum inhibition)
T2 construct: Cell lysates were collected using Cell Culture Lysis Reagent; endogenous in cells; host or cells: A17 (murine basal-like breast cancer cells)
T2 sequence (P00375 1-187): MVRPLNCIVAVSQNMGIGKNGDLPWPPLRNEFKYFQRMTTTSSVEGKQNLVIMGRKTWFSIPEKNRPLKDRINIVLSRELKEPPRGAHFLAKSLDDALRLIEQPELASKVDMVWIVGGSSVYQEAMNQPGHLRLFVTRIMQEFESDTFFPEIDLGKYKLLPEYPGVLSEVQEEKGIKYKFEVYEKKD
Method: SKBR3, MDA-MB-231 and A17 cells were plated onto 100 mm cell culture dishes (2 × 10^6 cells/ dish). The day after, cells were treated with vehicle alone (DMSO) as control or increasing concentrations of compound 5 and compound 6 in DMEM supplemented with 2% FBS (Invitrogen, Carlsbad, CA) for 4 h or 12 h. Representative pictures of cells treated with compound 5 or 6 at the indicated concentration for 4 or 12 h just before to take cell lysates for the enzymatic tests are reported as supplemental files. Cell lysates were collected using Cell Culture Lysis Reagent (Promega, Madison, WI) supplemented with BSA (1%) and protease inhibitors. DHFR activity was assessed by spectrophotometric assay as reported elsewhere (Wang et al., [2020]) in which the reaction rate was followed by recording the decreasing absorbance at 340 nm due to oxidation of NADPH to NADP^+, using a Shimadzu UV-2450 spectrophotometer. When necessary, because of low protein content in the lysates, the DHFR enzymatic activity was measured by a discontinuous direct HPLC assay using an Agilent 1100 system. HPLC-DAD (Agilent 1100) was used to detect and quantify the presence of NADP^+, as one of the products of DHFR catalyzed reaction, in cell lysates. Fifty microliter of the cell lysate were incubated at 37°C in a reaction mixture containing 760 μl of buffer (0.05 M Hepes pH 7.3), 20 μl of NADPH 4 mM, and 20 μl of dihydrofolate (H2F) 4 mM. The samples for HPLC analysis were prepared as follows: 50 μl aliquots of each mixture were stopped at different times (0, 5, 10, 20, 30, and 60 min) by adding 25 μl of HClO4 1.2 M; after 10 min on ice and centrifugation for 5 min at 12,000 g, 60 μl of each supernatant were neutralized by adding 17.5 μl of K2CO3 0.79 M, kept on ice and centrifuged again. Fifty microliter of the supernatant obtained were directly injected into the reversed phase column for separations of reagents and products of the enzyme catalyzed reaction. The column used is a Supelcosil LC RP 18 (4.6 × 250 mm) with pre-column SupelGuard. The HPLC settings are the same reported in Wang et al. ([2020]). The amounts of product (NADP^+) were determined from the peak areas of the HPLC-separated compounds with reference to appropriate standards. One enzyme unit is defined as the amount of enzyme which catalyzes the reduction of 1 μmol of dihydrofolate, per minute, at 37°C. Enzyme activities were normalized by the protein content, determined by the Bradford assay (Bradford, [1976]).

[3] = test system: thioredoxin reductase (TrxR); details: A17, 12 h treatment, 6 μM (maximum inhibition); control 4.95 ± 0.08
Method: The assay was performed as previously reported (Galassi et al., [2012]) in 0.2 M Na, K-phosphate buffer (pH 7.4) containing 2 mM EDTA. The assay contained 0.12 mM NADPH and different amounts of cell lysate. The reaction was initiated by the addition of 3 mM 5,5′-dithiobis (2-nitrobenzoic acid) (DTNB) and the increase of absorbance was monitored at 412 nm over 5 min at 25°C.
Fig. 3S. Effects of gold(I) compounds 5 and 6 on redox enzyme thioredoxine reductase in A17 cancer cells. Cells were incubated for 12 hours with different amount of tested compounds 5 and 6. After incubation, cells were washed twice with PBS and lysed. TrxR activity was tested by measuring NADPH-dependent reduction of DTNB (Galassi et al, 2012).

[4] = A17, 4 h treatment, control 1.17 ± 0.06
[5] = A17, 12 h treatment, control 4.77 ± 0.78

T1 sequence (P02787 20-698): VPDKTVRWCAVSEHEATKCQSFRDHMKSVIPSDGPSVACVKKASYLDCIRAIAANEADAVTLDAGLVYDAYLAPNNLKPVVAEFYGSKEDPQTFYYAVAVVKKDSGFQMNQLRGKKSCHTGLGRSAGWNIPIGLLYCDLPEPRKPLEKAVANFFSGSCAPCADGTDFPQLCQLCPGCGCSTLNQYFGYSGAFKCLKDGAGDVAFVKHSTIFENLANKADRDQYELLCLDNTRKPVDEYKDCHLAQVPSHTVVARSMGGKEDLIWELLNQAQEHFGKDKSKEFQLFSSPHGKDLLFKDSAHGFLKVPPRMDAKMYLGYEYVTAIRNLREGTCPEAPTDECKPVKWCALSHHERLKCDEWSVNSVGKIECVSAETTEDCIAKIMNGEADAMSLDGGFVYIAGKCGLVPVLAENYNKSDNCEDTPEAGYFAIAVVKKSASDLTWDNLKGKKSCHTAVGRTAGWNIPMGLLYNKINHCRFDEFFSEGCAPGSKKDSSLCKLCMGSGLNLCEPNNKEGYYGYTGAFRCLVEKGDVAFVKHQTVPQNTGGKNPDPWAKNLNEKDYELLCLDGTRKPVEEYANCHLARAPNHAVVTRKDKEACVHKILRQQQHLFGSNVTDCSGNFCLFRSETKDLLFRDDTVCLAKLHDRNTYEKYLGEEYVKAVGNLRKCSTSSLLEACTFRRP

Row | Substance | ATF Ksv [1] | Specific enzymatic activity of DHFR [2, 4] | Specific enzymatic activity of DHFR [2, 5] | Specific enzymatic activity of TrxR [3]
1 | 4,5-dichloro-imidazolate-1yl-gold(I)-(triphenylphosphane) [Compound 6] | 1.51 ± 0.55 10^4 M^−1 | 1.03 ± 0.03 mU/mg | 2.01 ± 0.14 mU/mg | 4.21 ± 0.09 (6 μM) mU/mg
2 | 4,5-dicyano-imidazolate-1yl-gold(I)-(triphenylphosphane) [Compound 5] | 1.93 ± 0.44 10^4 M^−1 | 1.07 ± 0.02 mU/mg | 1.66 ± 0.07 mU/mg | 1.84 ± 0.06 (6 μM) mU/mg
